Each structure is given as a SMILES string. A value given as a limit tells only on which side of the number the result lay.

One assay concerns the target T1, Zcchc11 enzyme (Homo sapiens, UniProt Q5TAX3).
T1 construct: made in house; host or cells: HEK293 cells (Zcchc11); E. coli Rosetta II (LIN28A)
T1 sequence (Q5TAX3 212-1420): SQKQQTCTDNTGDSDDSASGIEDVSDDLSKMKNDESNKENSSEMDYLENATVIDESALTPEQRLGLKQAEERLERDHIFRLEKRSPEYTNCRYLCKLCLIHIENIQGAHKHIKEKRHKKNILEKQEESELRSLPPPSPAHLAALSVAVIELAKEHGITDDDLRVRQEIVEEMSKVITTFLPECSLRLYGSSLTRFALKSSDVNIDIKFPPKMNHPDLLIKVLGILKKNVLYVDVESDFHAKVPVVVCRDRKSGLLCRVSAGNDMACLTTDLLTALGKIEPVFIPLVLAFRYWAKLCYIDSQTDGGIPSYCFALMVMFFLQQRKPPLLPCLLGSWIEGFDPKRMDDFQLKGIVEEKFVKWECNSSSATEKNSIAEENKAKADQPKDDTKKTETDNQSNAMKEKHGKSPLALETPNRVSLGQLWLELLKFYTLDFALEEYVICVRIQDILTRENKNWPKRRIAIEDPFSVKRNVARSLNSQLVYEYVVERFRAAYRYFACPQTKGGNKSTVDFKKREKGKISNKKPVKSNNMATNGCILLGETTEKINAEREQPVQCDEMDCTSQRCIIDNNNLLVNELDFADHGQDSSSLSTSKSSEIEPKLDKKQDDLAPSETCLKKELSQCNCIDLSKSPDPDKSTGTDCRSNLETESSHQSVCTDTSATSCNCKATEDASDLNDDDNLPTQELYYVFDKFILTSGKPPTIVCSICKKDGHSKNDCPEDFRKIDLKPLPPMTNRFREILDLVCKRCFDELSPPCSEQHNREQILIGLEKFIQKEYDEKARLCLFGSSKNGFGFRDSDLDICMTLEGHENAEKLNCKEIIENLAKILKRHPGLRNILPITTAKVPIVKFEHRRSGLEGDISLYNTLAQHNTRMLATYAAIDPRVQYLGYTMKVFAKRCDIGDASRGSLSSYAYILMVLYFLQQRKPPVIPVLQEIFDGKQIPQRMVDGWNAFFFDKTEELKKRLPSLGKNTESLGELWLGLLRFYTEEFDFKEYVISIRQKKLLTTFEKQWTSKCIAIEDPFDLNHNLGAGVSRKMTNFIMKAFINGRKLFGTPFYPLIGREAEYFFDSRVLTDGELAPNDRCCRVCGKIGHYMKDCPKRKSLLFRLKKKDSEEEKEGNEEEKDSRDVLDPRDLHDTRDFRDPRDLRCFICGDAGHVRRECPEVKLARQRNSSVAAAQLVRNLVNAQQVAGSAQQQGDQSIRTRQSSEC
Nature of the assay: TUTase assay (Zcchc11 assay, Lin28a-dependent polyuridylation of pre-let-7). It counts as biochemical. The settings on record: LIN28A 10 nM, Zcchc11 0.2 nM, 5′-fluorescein pre-let-7 miRNA 2 nM, UTP 5 uM, room temperature, 30 minutes pre-incubation; read-out: Potency Lin28a-dep Z11 IC50. The gist of the method: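 Readout: time-dependent quench of 5′-fluorescein pre-let-7 (2 nM) as 3′-rhodamine A20 probe anneals to poly(U) tails. Enzyme 0.2 nM Zcchc11 (res. 212-1420), LIN28A 10 nM, UTP 5 uM; pH 7.3 HEPES, 150 mM KCl, 5 mM MgCl2, RT. 4-parameter IC50; 100% = DMSO, 0% = no UTP.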
Take `CN(C)C1CN(c2ccc(-n3cc(C(=O)O)c(=O)c4cc(C#N)c(N5C6CCC5(COc5ncccc5F)CC6)cc43)cn2)C1` [Example 42, 6-cyano-1-(6-(3-(dimethylamino)azetidin-1-yl)pyridin-3-yl)-7-(1-(((3-fluoropyridin-2-yl)oxy)methyl)-7-azabicyclo[2.2.1]heptan-7-yl)-4-oxo-1,4-dihydroquinoline-3-carboxylic acid]: the IC50 is no more than 1000 nM.
Turning to `O=C(O)c1cn2c3cc(c(Cl)cc3c1=O)N1CCC[C@@H]1COc1nc(ccc1Cl)OCCCNc1ccc-2cn1` [Example 55, (R)-26,63-dichloro-24-oxo-21,24-dihydro-5,7-dioxa-11-aza-2(1,7)-quinolina-1(5,2),6(2,6)-dipyridina-3(1,2)-pyrrolidinacycloundecaphane-23-carboxylic acid], the IC50 fell in the range of 10000 to 50000 nM.
In the case of `CO/N=C1/C[C@H](COc2nc(OC)ccc2Cl)N(c2cc3c(cc2Cl)c(=O)c(C(=O)O)cn3-c2ccc(N3CC(N(C)C)C3)nc2)C1` [Example 69, 6-chloro-7-[(2R,4Z)-2-[[(3-chloro-6-methoxypyridin-2-yl)oxy]methyl]-4-(methoxyimino)pyrrolidin-1-yl]-1-[6-[3-(dimethylamino)azetidin-1-yl]pyridin-3-yl]-4-oxoquinoline-3-carboxylic acid], the IC50 is no more than 1000 nM.
On the same count and under the same terms, next, `COc1ccc(Cl)c(OCC2C3CC(C3)N2c2cc3c(cc2Cl)c(=O)c(C(=O)O)cn3-c2ccc(N3CC(N(C)C)C3)nc2)n1` (stereo not shown) [Example 64, 6-chloro-7-(3-(((3-chloro-6-methoxypyridin-2-yl)oxy)methyl)-2-azabicyclo[2.1.1]hexan-2-yl)-1-(6-(3-(dimethylamino)azetidin-1-yl)pyridin-3-yl)-4-oxo-1,4-dihydroquinoline-3-carboxylic acid]: no more than 1000 nM.

Staying with this assay, now noted: Lin28a-dependent Zcchc11 (Z11) TUTase activity; read-out: Potency Lin28a-dep Z11 IC50.
For `O=C(O)c1cn(-c2cnn(C3CNC3)c2)c2cc(N3CCC[C@@H]3COc3ncccc3F)c(Cl)cc2c1=O` [Compound 246, 1-[1-(azetidin-3-yl)pyrazol-4-yl]-6-chloro-7-[(2R)-2-[[(3-fluoropyridin-2-yl)oxy]methyl]pyrrolidin-1-yl]-4-oxoquinoline-3-carboxylic acid], the IC50 is no more than 1000 nM.
For the compound `CN(C)C1CN(c2ccc(-n3cc(C(=O)O)c(=O)c4cc(Cl)c(N5CCC[C@]5(C)COc5ncccc5Cl)nc43)cn2)C1` [Compound 185], the half-inhibitory concentration (IC50) was no more than 1000 nM.
In the case of `COC1C[C@H](COc2ncccc2Cl)N(c2cc3c(cc2Cl)c(=O)c(C(=O)O)cn3-c2ccc(N3CC(N(C)C)C3)nc2)C1` (stereo partly drawn) [Compound 327, 6-Chloro-7-[(2R)-2-[[(3-chloropyridin-2-yl)oxy]methyl]-4-methoxy-pyrrolidin-1-yl]-1-[6-[3-(dimethyl-amino)azetidin-1-yl]pyridin-3-yl]-4-oxoquinoline-3-carboxylic acid], the IC50 was no more than 1000 nM.
Turning to `COc1ccc(Cl)c(OC[C@H]2CCCN2c2cc3c(cc2Cl)c(=O)c(C(=O)O)cn3-c2ccc(N)nc2)n1` [Compound 294, (R)-1-(6-aminopyridin-3-yl)-6-chloro-7-(2-(((3-chloro-6-methoxy-pyridin-2-yl)oxy)methyl)pyrrolidin-1-yl)-4-oxo-1,4-dihydro-quinoline-3-carboxylic acid], the IC50 was no more than 1000 nM.
The same measure, in the same setting: next, `CN(C)C1CN(c2ccc(-n3cc(C(=O)O)c(=O)c4cc(Cl)c(N5CCC[C@@H]5COc5nc6ncn(C)c6cc5Cl)cc43)cn2)C1` [Compound 273, (R)-6-chloro-7-(2-(((6-chloro-1-methyl-1H-imidazo [4,5-b]pyridin-5-yl)oxy)methyl)pyrrolidin-1-yl)-1-(6-(3-(dimethyl-amino)azetidin-1-yl)pyridin-3-yl)-4-oxo-1,4-dihydro-quinoline-3-carboxylic acid formic acid]: no more than 1000 nM; `COc1ccc(Cl)c(OCC2N(c3cc4c(cc3Cl)c(=O)c(C(=O)O)cn4-c3cc(N)cnn3)CCC2(C)C)n1` (stereo not shown) [Compound 229, 1-(5-Amino-pyridazin-3-yl)-6-chloro-7-(2-(((3-chloro-6-methoxy-pyridin-2-yl)oxy)methyl)-3,3-dimethyl-pyrrolidin-1-yl)-4-oxo-1,4-dihydro-quinoline-3-carboxylic acid]: no more than 1000 nM.

Staying with this assay, now noted: Lin28a-dependent Zcchc11 (Z11) TUTase assay; read-out: Potency Lin28a-dep Z11 IC50.
With `Nc1ncc(-n2cc(C(=O)O)c(=O)c3cc(Cl)c(N4CCC[C@@H]4COc4ncccc4Cl)cc32)cn1` [Example 555, (R)-1-(2-aminopyrimidin-5-yl)-6-chloro-7-(2-(((3-chloropyridin-2-yl)oxy)methyl)pyrrolidin-1-yl)-4-oxo-1,4-dihydroquinoline-3-carboxylic acid], the IC50 is no more than 1000 nM.
On the same count and under the same terms, next, `O=C(O)c1cn(-c2cnc(O)cn2)c2cc(N3CCC[C@@H]3COc3ccccn3)c(F)cc2c1=O` [Example 354, (R)-6-fluoro-1-(5-hydroxypyrazin-2-yl)-4-oxo-7-(2-((pyridin-2-yloxy)methyl)pyrrolidin-1-yl)-1,4-dihydroquinoline-3-carboxylic acid]: 1000 to 10000 nM.
Regarding `CC(=O)Nc1ccc(-n2cc(C(=O)O)c(=O)c3cc(F)c(N4CCC[C@@H]4COc4ccccn4)cc32)cc1` [Example 370, (R)-1-(4-acetamidophenyl)-6-fluoro-4-oxo-7-(2-((pyridin-2-yloxy)methyl)pyrrolidin-1-yl)-1,4-dihydro-quinoline-3-carboxylic acid], the IC50 is no more than 1000 nM.
`O=C(O)c1cn(Cc2cn[nH]c2)c2cc(N3CCC[C@@H]3COc3ncccc3Cl)c(Cl)cc2c1=O` [Example 581, (R)-1-((1H-pyrazol-4-yl)methyl)-6-chloro-7-(2-(((3-chloropyridin-2-yl)oxy)methyl)pyrrolidin-1-yl)-4-oxo-1,4-dihydroquinoline-3-carboxylic acid]: the IC50 was in the range of 1000 to 10000 nM.
Same read-out and setting: next, `Cn1cc(Cn2cc(C(=O)O)c(=O)c3cc(Cl)c(N4CCC[C@@H]4COc4ncccc4Cl)cc32)cn1` [Example 573, (R)-6-chloro-7-(2-(((3-chloropyridin-2-yl)oxy)methyl)pyrrolidin-1-yl)-1-((1-methyl-1H-pyrazol-4-yl)methyl)-4-oxo-1,4-dihydroquinoline-3-carboxylic acid]: no more than 1000 nM; `CN(C)CCn1cc(Cn2cc(C(=O)O)c(=O)c3cc(Cl)c(N4CCC[C@@H]4COc4ncccc4Cl)cc32)cn1` [Example 582, (R)-6-chloro-7-(2-(((3-chloropyridin-2-yl)oxy)methyl)pyrrolidin-1-yl)-1-((1-(2-(dimethylamino)ethyl)-1H-pyrazol-4-yl)methyl)-4-oxo-1,4-dihydroquinoline-3-carboxylic acid]: 1000 to 10000 nM.
In the case of `O=C(O)c1cn(-c2ccc3c(c2)CS(=O)(=O)N3)c2cc(N3CCC[C@@H]3COc3ncccc3Cl)c(Cl)cc2c1=O` [Example 621, (R)-6-chloro-7-(2-(((3-chloropyridin-2-yl)oxy)methyl)pyrrolidin-1-yl)-1-(2,2-dioxido-1,3-dihydrobenzo[c]isothiazol-5-yl)-4-oxo-1,4-dihydroquinoline-3-carboxylic acid], the half-maximal inhibitory concentration (IC50) is no more than 1000 nM.
Regarding `CN(C)C1CN(c2ccc(-n3cc(C(=O)O)c(=O)c4cc(Cl)c(N5C[C@@H](O)C[C@@H]5COc5ncccc5Cl)cc43)cn2)C1` [Example 598, 6-chloro-7-((2R,4S)-2-(((3-chloropyridin-2-yl)oxy)methyl)-4-hydroxypyrrolidin-1-yl)-1-(6-(3-(dimethylamino)azetidin-1-yl)pyridin-3-yl)-4-oxo-1,4-dihydroquinoline-3-carboxylic acid], the half-inhibitory concentration (IC50) was no more than 1000 nM.
Same read-out and setting: next, `CN(C)C1CN(c2ccc(-n3cc(C(=O)O)c(=O)c4cc(Cl)c(N5CCC[C@@H]5COc5ccnn5C)cc43)cn2)C1` [Example 580, (R)-6-chloro-1-(6-(3-(dimethylamino)azetidin-1-yl)pyridin-3-yl)-7-(2-(((1-methyl-1H-pyrazol-5-yl)oxy)methyl)pyrrolidin-1-yl)-4-oxo-1,4-dihydroquinoline-3-carboxylic acid]: no more than 1000 nM.

Values taken from US12662491B2 (Redona Therapeutics, Inc., priority 2020, dated 2026).
